Values after ≈ are worked out from the molar mass of the structure shown.
How the values were obtained:
Assay type in all cases: functional
[1] = system: Lipid bilayer; assay: Induction of membrane lysis in Staphylococcus aureus UL12 lipid vesicles assessed as calcein release at 93.73 uM by spectrofluorometric analysis
[2] = system: Lipid bilayer; assay: Induction of membrane lysis in Staphylococcus aureus UL12 lipid vesicles assessed as calcein release at 187.5 uM by spectrofluorometric analysis
[3] = system: Lipid bilayer; assay: Induction of membrane lysis in Staphylococcus aureus UL12 lipid vesicles assessed as calcein release at 375 uM by spectrofluorometric analysis
[4] = system: Lipid bilayer; assay: Induction of membrane lysis in Staphylococcus aureus UL12 lipid vesicles assessed as calcein release at 750 uM by spectrofluorometric analysis
[5] = system: Lipid bilayer; assay: Induction of membrane lysis in Staphylococcus aureus UL12 lipid vesicles assessed as calcein release at 1500 uM by spectrofluorometric analysis
[6] = system: Lipid bilayer; assay: Induction of membrane lysis in Staphylococcus aureus UL12 lipid vesicles assessed as calcein release at 3000 uM by spectrofluorometric analysis
[7] = system: Lipid bilayer; assay: Induction of membrane lysis in Escherichia coli W3110 lipid vesicles assessed as calcein release at 93.73 uM by spectrofluorometric analysis
[8] = system: Lipid bilayer; assay: Induction of membrane lysis in Escherichia coli W3110 lipid vesicles assessed as calcein release at 187.5 uM by spectrofluorometric analysis
[9] = system: Lipid bilayer; assay: Induction of membrane lysis in Escherichia coli W3110 lipid vesicles assessed as calcein release at 375 uM by spectrofluorometric analysis
[10] = system: Lipid bilayer; assay: Induction of membrane lysis in Escherichia coli W3110 lipid vesicles assessed as calcein release at 750 uM by spectrofluorometric analysis
[11] = system: Lipid bilayer; assay: Induction of membrane lysis in Escherichia coli W3110 lipid vesicles assessed as calcein release at 1500 uM by spectrofluorometric analysis
[12] = system: Lipid bilayer; assay: Induction of membrane lysis in Escherichia coli W3110 lipid vesicles assessed as calcein release at 3000 uM by spectrofluorometric analysis
[13] = system: Staphylococcus aureus; assay: Antibacterial activity against Staphylococcus aureus UL12
[14] = system: Escherichia coli; assay: Antibacterial activity against Escherichia coli W3110
[15] = system: Staphylococcus aureus; assay: Membrane permeabilisation in Staphylococcus aureus UL12 assessed as NPN uptake at 2mM incubated for 1 hr by spectrofluorometric analysis
[16] = system: Escherichia coli; assay: Membrane permeabilisation in Escherichia coli W3110 assessed as NPN uptake at 2mM incubated for 1 hr by spectrofluorometric analysis
[17] = system: Staphylococcus aureus; assay: Membrane permeabilisation in Staphylococcus aureus UL12 assessed as NPN uptake at 2mM incubated overnight by spectrofluorometric analysis
[18] = system: Escherichia coli; assay: Membrane permeabilisation in Escherichia coli W3110 assessed as NPN uptake at 2mM incubated overnight by spectrofluorometric analysis

Structure (SMILES) | Activity [1] [%] | Activity [2] [%] | Activity [3] [%] | Activity [4] [%] | Activity [5] [%] | Activity [6] [%] | Activity [7] [%] | Activity [8] [%] | Activity [9] [%] | Activity [10] [%] | Activity [11] [%] | Activity [12] [%] | MIC [13] [µM] | MIC [14] [µM] | Activity [15] [%] | Activity [16] [%] | Activity [17] [%] | Activity [18] [%]
CN(C(=O)N(C)c1cccc(NC(=O)CN)c1)c1ccccc1 | 4.45 | 10 | 11.8 | 13.2 | 15.3 | 17.8 | 8.45 | 27.2 | 29.3 | 30 | 31 | 35.5 | 2500 (≈ 781 µg/mL) | 2000 (≈ 625 µg/mL) | 40.6 | 42.47 | 36.81 | 52.87
CN(C(=O)N(C)c1cccc(NC(=O)c2ccncc2)c1)c1ccccc1 | 40 | 48.2 | 49.6 | 51.5 | 53.1 | 54.6 | 24.1 | 24.8 | 26.3 | 29.1 | 33.6 | 35.3 | 1000 (≈ 360 µg/mL) | 2000 (≈ 721 µg/mL) | 50.59 | 49.57 | 57.33 | 52.34
CN(C(=O)N(C)c1cccc(N)c1)c1ccccc1 | 4.45 | 7.13 | 12 | 15.3 | 21.2 | 27 | 2.3 | 5.72 | 6.75 | 7.44 | 8.03 | 9.65 | 2000 (≈ 511 µg/mL) | > 3000 | 46.26 | 40.18 | 53.57 | 48.79
CN(C(=O)N(C)c1ccccc1)c1ccccc1 | 2.59 | 5.71 | 12.8 | 14.2 | 15.1 | 24.1 | 0.82 | 2.05 | 4.25 | 6.44 | 7.28 | 9.02 | 2500 (≈ 601 µg/mL) | > 3000 | 43.82 | 40.75 | 44.34 | 38.67
Nc1cccc(NC(=O)Nc2ccccc2)c1 | 4.58 | 8.34 | 10.1 | 12.7 | 13.8 | 15.5 | 0.15 | 0.95 | 1.24 | 1.73 | 1.78 | 2.17 | 2500 (≈ 568 µg/mL) | > 3000 | 38.91 | 33.93 | 19.29 | 16.34
O=C(Nc1ccccc1)Nc1ccccc1 [DIPHENYLUREA] | 7.18 | 9.2 | 13.8 | 15.3 | 18.3 | 25.5 | 3.17 | 6.27 | 6.47 | 8.53 | 12 | 14.8 | 2000 (≈ 425 µg/mL) | > 3000 | 46.01 | 45.29 | 49.4 | 30.02
NCC(=O)Nc1cccc(NC(=O)Nc2ccccc2)c1 | 6.91 | 11.2 | 17.8 | 27.2 | 31.2 | 44.1 | 1.1 | 6.06 | 9.17 | 16.6 | 23.5 | 29.2 | 1500 (≈ 426 µg/mL) | 2000 (≈ 569 µg/mL) | 69.56 | 47.09 | 69.56 | 50.93

Reference: ChEMBL document CHEMBL3826887, “Functional foldamers that target bacterial membranes: The effect of charge, amphiphilicity and conformation” (2016)
